Here are results for one compound from PMC5569447 (Iranian Journal of Basic Medical Sciences, 2017).

The structures appear in SMILES notation. Peptide text beside a SMILES is read from it.

This assay has as its system Mtb strain H37Rv ATCC 27294. To be noted: 24 h.

In the case of `NC(=O)CC[C@H](NC(=O)[C@@H]1CCCN1C(=O)[C@@H]1CCCN1)C(=O)O` [PPQ] (H-Pro-Pro-Gln-OH), the “MABA MIC” value is greater than 800 µM.
